Results reported in US20240383924A1, “BENZOPYRIMIDINE COMPOUNDS AND USE THEREOF” (priority 2022, published 2024).
Structures can show the parent of a compound that is named as a salt. Where two headings read alike, the source gives them in different places.

Key:
KRAS^G12D [1] = target: T1, KRAS^G12D (Homo sapiens (Human), UniProt P01116, G12D); assay: SOS1-mediated binding of KRAS^G12D to effector protein c-Raf (TR-FRET); format: biochemical; conditions: KRAS G12D/c-Raf/SOS1/GTP, read-out: IC50 Values of Compounds for KRAS^G12D Activity
Protocol: Assay example 1: Assay of SOS1-mediated binding ability of KRAS^G12D to effector protein c-Raf
2. Assay steps 2.1 Preparation of 1×enzymatic reaction buffer:
2.2 Preparation of KRAS G12D enzyme (2×):
2.3 Preparation of substrate and antibody mixture (2×):
1) The compounds were serially diluted 5-fold with DMSO in a dilution plate to a final starting concentration of 10 μM.
2) The compounds were transferred with Echo to a 384 reaction plate with […] per well.
3) 5 μL of KRAS G12D enzyme was added to each well of the reaction plate.
4) The plates were sealed with a sealing film and centrifuged at 1000 g for 30 seconds, and then incubated at room temperature for 15 minutes.
5) 2× cRaf/SOS1/GTP/MAb Anti 6HIS-d2/MAb Anti GST-Eu mixture was prepared with 1× enzyme reaction buffer, and 5 μL of the mixture was added to the reaction plate.
6) The mixture was centrifuged at 1000g for 30 seconds and reacted at room temperature for 2 hours.
7) The fluorescence signals at 615 nm (Cryptate) and 665 nm (XL665) were read with a BMG microplate reader.
8) Data analysis was performed using Graphpad 7.0 software to give IC50.

[2] = test system: phospho-ERK in GP2D cells; assay: Inhibition of phospho-ERK in GP2D cells (Odyssey in-cell imaging); format: cell-based; conditions: Homo sapiens, 1 hour compound, EGF stimulation, read-out: Inhibitory effects on intracellular phospho-ERK IC50
Protocol: Assay example 3. Inhibitory effect of compounds on phospho-ERK in GP2D cells
In this assay, the inhibitory effect of the assayed compounds on the phosphorylation of ERK protein downstream of the KRAS […] signaling pathway in human colon cancer GP2D cells was analyzed.
2. Reagents, consumables and instruments
3.Assay process 1. Cell culture
1) GP2D cells were cultured in a cell culture 75 flask at 37° C., 5% CO2, and the medium was DMEM medium (added with 10% FBS and 1% P/S).
2) After cultivation for 2 days, the medium was removed and the sterile PBS buffer was used to wash once.
3) 3 mL of trypsin was added and the cells were digested in a 37° C. incubator for 2 to 3 minutes until cells fell off.
4) 9 mL of fresh culture medium was added to neutralize the digestion; the cells were aspirated into a centrifuge tube and centrifuged at 1000 rpm at room temperature for 5 minutes.
5) The supernatant was removed, and 3 mL of fresh culture medium was added to resuspend the cells; the cells were counted by a cell counter.
1) 7000 cells per well were plated in a 384-cell culture plate with 40 μL of culture medium, and cultured overnight in a 37° C. and 5% CO2 incubator.
2) The Echo655 instrument was used to add 40 nL of serially diluted compounds (the initial concentration of the compound was 1000 nM, and the compound was serially diluted 3-fold. […]

[3] = Pharmacokinetic study in vivo in mice; conditions: mouse, plasma, male C57BL/6J mice; for AUC(0-t): read-out: area under plasma concentration-time curve AUC0-last
Protocol: Male C57BL/6J mice aged 7 to 10 weeks were selected, and administered candidate compound solutions intravenously or orally. Whole blood was collected for a certain period of time. Plasma was prepared. Drug concentration was analyzed by LC-MS/MS method. Pharmacokinetic parameters were calculated using Certara WinNonlin software (Certara Company, USA).

[4] = test system: KRAS^G12D mutated AsPC-1 cells; assay: Anti-cell proliferation in tumor cell line AsPC-1 (CellTiter-Glo 3D); format: cell-based; conditions: Homo sapiens, ASPC1; AsPC-1, 120 hours, 3D culture; read-out: Anti-proliferation Activity against KRAS^G12D Mutated AsPC-1 Cells IC50
Text: Assay example 2. Anti-cell proliferation effects of compounds in tumor cell line AsPC-1 1. Research purpose
In this assay, the inhibitory effects of compounds on cell proliferation were studied by detecting the effects of compounds on the in vitro cell activity in the tumor cell line AsPC-1.
Ultra Low Cluster-96 well plate (Corning-7007)
Greiner CELLSTAR 96-well plate (#655090)
Promega CellTiter-Glo 3D Luminescence Cell Viability Detection Kit (Promega-G9683)
2104-10 En Vision Plate Reader, PerkinElmer
RPMI 1640, DMEM, PBS (phosphate buffered solution), FBS (fetal bovine serum), Antibiotic-antimycotic, L-glutamine, DMSO (dimethyl sulfoxide)
3. Assay methods and steps Cell culture
The tumor cell line was cultured in a 37° C., 5% CO2 incubator according to the culture conditions indicated in the culture method. […]
Cells were stained with trypan blue and viable cells were counted. […]
CellTiter-Glo luminescence assay for cell viability detection (day 5)
The following steps were performed according to the instructions of the Promega CellTiter-Glo 3D Luminescence Cell Viability Dectection Kit (Promega #G9683). […]
The solution in the ULA culture plate was then transferred to a black bottom culture plate (#655090) and left at room temperature for 25 minutes to stabilize the luminescence signal.
Luminescence signals were detected with a 2104 EnVision plate reader. […]

KRAS^G12D [5] = target: T1, KRAS^G12D; assay: Activity of inhibiting KRAS^G12D: binding of KRAS to GTP (TR-FRET, SOS/GTP exchange); format: biochemical; conditions: Bodipy GDP/SOS/GTP

T1 sequence (P01116-2 other isoform, or with tags, fused parts or gaps G12D): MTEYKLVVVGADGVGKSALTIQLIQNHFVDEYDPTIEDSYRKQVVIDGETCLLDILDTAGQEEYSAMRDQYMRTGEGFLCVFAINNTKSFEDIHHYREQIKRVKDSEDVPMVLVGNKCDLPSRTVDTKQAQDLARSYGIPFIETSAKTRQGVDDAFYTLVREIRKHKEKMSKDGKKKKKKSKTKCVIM

Work on C#Cc1c(F)ccc2cc(N)cc(-c3c(Cl)cc4c(N5CC6C=CC(C5)N6)nc(OC[C@@]56CCCN5C[C@H](F)C6)nc4c3F)c12 [Compound 001B] yielded an IC50 (KRAS^G12D [1]) of 18.9 nM.

Work on C#Cc1c(F)ccc2cc(N)cc(-c3c(F)cc4c(N5CC6C=CC(C5)N6)nc(OC[C@@]56CCCN5C[C@H](F)C6)nc4c3F)c12 [Compound 002A] yielded an IC50 [2] of 0.15 nM, a Vd ([3]; intravenous administration, dose 1.74-1.94 mg/kg, read-out: apparent volume of distribution Vdss) of 56.3 L/kg and an AUC(0-t) ([3]; intravenous administration, dose 1.74-1.94 mg/kg) of 0.267 µM·h. For the same compound, the clearance ([3]; intravenous administration, dose 1.74-1.94 mg/kg, read-out: clearance rate CL) was 189 mL/min/kg, the half-life ([3]; intravenous administration, dose 1.74-1.94 mg/kg, read-out: half-life T1/2 (converted)) was 7.12 h and the AUC(0-t) ([3]; oral administration, dose 28.2-51.0 mg/kg) was 0.637 µM·h. For the same compound, the bioavailability ([3]; oral administration, dose 28.2-51.0 mg/kg, read-out: bioavailability F) was 16.1%, the Cmax ([3]; oral administration, dose 28.2-51.0 mg/kg, read-out: peak concentration Cmax) was 345 nM and the Tmax ([3]; oral administration, dose 28.2-51.0 mg/kg, read-out: peak time Tmax) was 1.13 h. It also gave an IC50 (KRAS^G12D [1]) of 23.7 nM and an IC50 [4] of 17.7 nM.

Compound C#Cc1c(F)ccc2cc(N)cc(-c3ccc4c(N5CC6C=CC(C5)N6)nc(OC[C@@]56CCCN5C[C@H](F)C6)nc4c3F)c12 [Compound 003] has an IC50 (KRAS^G12D [1]) of 20.4 nM.

Work on C#Cc1c(F)ccc2cc(O)cc(-c3ccc4c(N5CC6C=CC(C5)N6)nc(OC[C@@]56CCCN5C[C@H](F)C6)nc4c3F)c12 [Compound 005] yielded an IC50 (KRAS^G12D [1]) of 12.3 nM.

For C#Cc1c(F)ccc2cc(N)cc(-c3cc(OC)c4c(N5CC6C=CC(C5)N6)nc(OC[C@@]56CCCN5C[C@H](F)C6)nc4c3F)c12 [Compound 006], the IC50 (KRAS^G12D [1]) was 37.4 nM.

Work on C#Cc1c(F)ccc2cc(N)cc(-c3c(F)cc4c(N5CC6C=CC(C5)N6)nc(OC[C@]56CCCN5CC(=C)C6)nc4c3F)c12 [Compound 016B] yielded an IC50 [4] of 14.2 nM.

In the case of Oc1cc(-c2c(Cl)cc3c(N4C5CCC4CNC5)nc(OC[C@@]45CCCN4C[C@H](F)C5)nc3c2F)c2ccccc2c1 [Compound 029 hydrochloride], the IC50 (KRAS^G12D [5]) is reported as 38.6 nM.
